From PubChem BioAssay (NCI)
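Briefly, cells in 96-well plates were exposed to five compound concentrations for 48 h, and endpoints were estimated by linear interpolation. GI50 is the concentration that inhibits growth by half. TGI denotes the concentration required for complete inhibition of growth.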

What was measured:
Experiment in all cases: DTP human tumour cell line panel, 48 h
CCRF-CEM leukemia = system: CCRF-CEM leukemia
MALME-3M melanoma = system: MALME-3M melanoma
NCI-H226 lung = system: NCI-H226 lung
OVCAR-5 ovarian = system: OVCAR-5 ovarian
RPMI-8226 leukemia = system: RPMI-8226 leukemia
SF-268 CNS = system: SF-268 CNS
SK-MEL-2 melanoma = system: SK-MEL-2 melanoma
UACC-257 melanoma = system: UACC-257 melanoma
SK-MEL-5 melanoma = system: SK-MEL-5 melanoma

For `O=C(CCC(=O)C(C(=O)c1ccccc1)c1ccccc1)Nc1cccc(C(F)(F)F)c1` (configuration not stated), the TGI (CCRF-CEM leukemia) was > 100 µM, the TGI (MALME-3M melanoma) was > 100 µM and the TGI (NCI-H226 lung) was > 100 µM. For the same compound, the TGI (OVCAR-5 ovarian) was > 100 µM, the TGI (RPMI-8226 leukemia) was > 100 µM and the TGI (SF-268 CNS) was > 100 µM. The TGI (SK-MEL-2 melanoma) was > 100 µM and the TGI (UACC-257 melanoma) was > 100 µM.
`O=CC[C@H]1CCc2ccccc2C12CCC(=O)CC2` was tested, and the TGI (CCRF-CEM leukemia) was > 100 µM, the TGI (MALME-3M melanoma) was > 100 µM and the TGI (NCI-H226 lung) was > 100 µM. The TGI (OVCAR-5 ovarian) was > 100 µM, the TGI (RPMI-8226 leukemia) was > 100 µM and the TGI (SF-268 CNS) was > 100 µM. The TGI (SK-MEL-2 melanoma) was > 100 µM, the TGI (SK-MEL-5 melanoma) was > 100 µM and the TGI (UACC-257 melanoma) was > 100 µM.
For `Cc1ccc(S(=O)(=O)OCC23CCC(CC2)C2CC23)cc1` (configuration not stated), the TGI (CCRF-CEM leukemia) was > 100 µM, the TGI (MALME-3M melanoma) was > 100 µM and the TGI (NCI-H226 lung) was > 100 µM. The TGI (OVCAR-5 ovarian) was > 100 µM, the TGI (RPMI-8226 leukemia) was 87.8 µM and the TGI (SF-268 CNS) was > 100 µM. For the same compound, the TGI (SK-MEL-5 melanoma) was 75.4 µM and the TGI (UACC-257 melanoma) was > 100 µM.
In the case of `CCC(=O)c1c(NOC2OC(COC(C)=O)C(OC(C)=O)C(OC(C)=O)C2OC(C)=O)nc(OC)n(C)c1=O` (configuration not stated), the TGI (CCRF-CEM leukemia) is reported as > 100 µM, the TGI (NCI-H226 lung) is reported as > 100 µM and the TGI (OVCAR-5 ovarian) is reported as > 100 µM. The TGI (SF-268 CNS) was > 100 µM, the TGI (SK-MEL-2 melanoma) was > 100 µM and the TGI (SK-MEL-5 melanoma) was > 100 µM.
`C1=CC=C2NCCCNC3=CC=CC=CC3=NCCCN=C2C=C1` was tested, and the TGI (CCRF-CEM leukemia) was > 100 µM, the TGI (NCI-H226 lung) was > 100 µM and the TGI (OVCAR-5 ovarian) was > 100 µM. For the same compound, the TGI (RPMI-8226 leukemia) was > 100 µM, the TGI (SF-268 CNS) was > 100 µM and the TGI (SK-MEL-2 melanoma) was > 100 µM. The TGI (SK-MEL-5 melanoma) was > 100 µM.
For `S=c1cc(S)sc2c1c(=S)sc1nc3ccccn3c(=S)c12`, the TGI (CCRF-CEM leukemia) was > 100 µM, the TGI (MALME-3M melanoma) was > 100 µM and the TGI (NCI-H226 lung) was > 100 µM. For the same compound, the TGI (OVCAR-5 ovarian) was > 100 µM, the TGI (RPMI-8226 leukemia) was > 100 µM and the TGI (SK-MEL-2 melanoma) was > 100 µM. For the same compound, the TGI (SK-MEL-5 melanoma) was > 100 µM.
For `C[C@]1(CO)CCC[C@@]2(C)C1CC[C@H]1CC3C[C@]12CC[C@]3(C)O` (some centres not stated), the TGI (MALME-3M melanoma) was > 100 µM, the TGI (NCI-H226 lung) was > 100 µM and the TGI (OVCAR-5 ovarian) was > 100 µM. For the same compound, the TGI (RPMI-8226 leukemia) was > 100 µM, the TGI (SF-268 CNS) was > 100 µM and the TGI (SK-MEL-5 melanoma) was 35.2 µM. For the same compound, the TGI (UACC-257 melanoma) was > 100 µM.
With `COC1OC(COCc2ccc(Cl)cc2)C(OCc2ccc(Cl)cc2)C1N=[N+]=[N-]` (configuration not stated) the TGI (MALME-3M melanoma) was > 100 µM, the TGI (NCI-H226 lung) was > 100 µM and the TGI (OVCAR-5 ovarian) was > 100 µM. For the same compound, the TGI (RPMI-8226 leukemia) was > 100 µM, the TGI (SK-MEL-2 melanoma) was > 100 µM and the TGI (SK-MEL-5 melanoma) was > 100 µM. The TGI (UACC-257 melanoma) was > 100 µM.
`Clc1ccc(C2SCc3nc4ccccc4n32)cc1Cl` (configuration not stated) was tested, and the TGI (CCRF-CEM leukemia) was > 100 µM, the TGI (MALME-3M melanoma) was 42.5 µM and the TGI (NCI-H226 lung) was 41.3 µM. The TGI (OVCAR-5 ovarian) was 22.8 µM, the TGI (RPMI-8226 leukemia) was 96.1 µM and the TGI (SF-268 CNS) was 37.6 µM. It also gave a TGI (SK-MEL-2 melanoma) of 35.5 µM and a TGI (SK-MEL-5 melanoma) of 21 µM.
For `COc1cc2c3c(c1OC)-c1c(ccc4c1OCO4)CC3(C#N)N(C(=O)c1ccccc1)CC2` (configuration not stated), the TGI (CCRF-CEM leukemia) was > 100 µM, the TGI (MALME-3M melanoma) was > 100 µM and the TGI (NCI-H226 lung) was > 100 µM. For the same compound, the TGI (OVCAR-5 ovarian) was > 100 µM, the TGI (RPMI-8226 leukemia) was > 100 µM and the TGI (SF-268 CNS) was > 100 µM. For the same compound, the TGI (SK-MEL-5 melanoma) was > 100 µM and the TGI (UACC-257 melanoma) was > 100 µM.
With `CC(=O)c1ccc(NC(=O)C(=O)Nn2c(=S)[nH]c3ccccc3c2=O)cc1` the TGI (MALME-3M melanoma) was > 100 µM, the TGI (NCI-H226 lung) was > 100 µM and the TGI (OVCAR-5 ovarian) was > 100 µM. For the same compound, the TGI (RPMI-8226 leukemia) was > 100 µM, the TGI (SF-268 CNS) was > 100 µM and the TGI (SK-MEL-2 melanoma) was > 100 µM. For the same compound, the TGI (SK-MEL-5 melanoma) was > 100 µM and the TGI (UACC-257 melanoma) was > 100 µM.
With `CC1C[C@@H]2C(=O)NC(=O)[C@@H]2c2c1c1ccccc1n2C` (some centres not stated) the TGI (CCRF-CEM leukemia) was > 100 µM, the TGI (MALME-3M melanoma) was > 100 µM and the TGI (NCI-H226 lung) was > 100 µM. For the same compound, the TGI (RPMI-8226 leukemia) was > 100 µM, the TGI (SF-268 CNS) was > 100 µM and the TGI (SK-MEL-2 melanoma) was > 100 µM. The TGI (SK-MEL-5 melanoma) was > 100 µM and the TGI (UACC-257 melanoma) was > 100 µM.
`O=[N+]([O-])c1cccc(C2ON2C2CCCCC2)c1` (configuration not stated) was tested, and the TGI (CCRF-CEM leukemia) was 36.7 µM, the TGI (MALME-3M melanoma) was 54.6 µM and the TGI (OVCAR-5 ovarian) was > 100 µM. The TGI (RPMI-8226 leukemia) was 7.98 µM, the TGI (SF-268 CNS) was 51 µM and the TGI (SK-MEL-2 melanoma) was 62.8 µM. It also gave a TGI (SK-MEL-5 melanoma) of 33 µM and a TGI (UACC-257 melanoma) of 49.6 µM.
With `Cc1cc(C)nc(NS(=O)(=O)c2ccc(Nc3c4ccc(Cl)cc4nc4c(C(=O)Nc5ccc(S(N)(=O)=O)cc5)cccc34)cc2)n1` the TGI (CCRF-CEM leukemia) was > 100 µM, the TGI (MALME-3M melanoma) was > 100 µM and the TGI (OVCAR-5 ovarian) was 28.8 µM. For the same compound, the TGI (RPMI-8226 leukemia) was 76.5 µM, the TGI (SF-268 CNS) was > 100 µM and the TGI (UACC-257 melanoma) was 43.9 µM.
For `COC(=O)c1c(N)n[nH]c1N`, the TGI (CCRF-CEM leukemia) was > 100 µM, the TGI (RPMI-8226 leukemia) was > 100 µM and the TGI (SF-268 CNS) was > 100 µM. The TGI (SK-MEL-2 melanoma) was > 100 µM, the TGI (SK-MEL-5 melanoma) was > 100 µM and the TGI (UACC-257 melanoma) was > 100 µM.
In the case of `CCC1CN2CCc3c([nH]c4ccccc34)C2C[C@@H]1CC(=O)N(C)C` (some centres not stated), the TGI (CCRF-CEM leukemia) is reported as > 100 µM, the TGI (MALME-3M melanoma) is reported as > 100 µM and the TGI (NCI-H226 lung) is reported as > 100 µM. For the same compound, the TGI (OVCAR-5 ovarian) was > 100 µM, the TGI (SF-268 CNS) was > 100 µM and the TGI (SK-MEL-2 melanoma) was > 100 µM. For the same compound, the TGI (SK-MEL-5 melanoma) was > 100 µM and the TGI (UACC-257 melanoma) was > 100 µM.
For `CCOC(=O)C1=C(C)N(c2ccc(C)cc2)C2=C(C(=O)N(c3ccccc3)C2c2ccccc2)C1c1ccccc1` (configuration not stated), the TGI (CCRF-CEM leukemia) was > 25 µM, the TGI (MALME-3M melanoma) was > 25 µM and the TGI (NCI-H226 lung) was > 25 µM. For the same compound, the TGI (RPMI-8226 leukemia) was > 25 µM, the TGI (SF-268 CNS) was > 25 µM and the TGI (SK-MEL-2 melanoma) was > 25 µM. The TGI (SK-MEL-5 melanoma) was > 25 µM and the TGI (UACC-257 melanoma) was > 25 µM.
With `CCCCCCCCCCCCCP(=O)(O)OCC` the TGI (CCRF-CEM leukemia) was > 100 µM, the TGI (MALME-3M melanoma) was > 100 µM and the TGI (NCI-H226 lung) was > 100 µM. For the same compound, the TGI (OVCAR-5 ovarian) was > 100 µM, the TGI (SF-268 CNS) was > 100 µM and the TGI (SK-MEL-2 melanoma) was > 100 µM. For the same compound, the TGI (SK-MEL-5 melanoma) was > 100 µM and the TGI (UACC-257 melanoma) was > 100 µM.
`CCc1cccc(C(C)C)c1N1C(=O)C(=O)C(c2nc3ccccc3s2)C(=O)C1=O` was tested, and the TGI (CCRF-CEM leukemia) was > 42.1 µM, the TGI (MALME-3M melanoma) was > 45.3 µM and the TGI (OVCAR-5 ovarian) was > 50 µM. The TGI (RPMI-8226 leukemia) was > 50 µM, the TGI (SF-268 CNS) was > 50 µM and the TGI (SK-MEL-2 melanoma) was > 50 µM. The TGI (SK-MEL-5 melanoma) was > 50 µM and the TGI (UACC-257 melanoma) was > 50 µM.
With `C=C1CCC2C(C)(C)CCC[C@]2(C)[C@H]1CO` (some centres not stated) the GI50 (NCI-H226 lung) was 94.5 µM, the TGI (NCI-H226 lung) was > 100 µM and the GI50 (OVCAR-5 ovarian) was 93.5 µM. For the same compound, the TGI (OVCAR-5 ovarian) was > 100 µM, the GI50 (SF-268 CNS) was > 100 µM and the TGI (SF-268 CNS) was > 100 µM. The GI50 (SK-MEL-2 melanoma) was > 100 µM, the TGI (SK-MEL-2 melanoma) was > 100 µM and the GI50 (SK-MEL-5 melanoma) was 68.2 µM. The TGI (SK-MEL-5 melanoma) was > 100 µM, the GI50 (UACC-257 melanoma) was > 100 µM and the TGI (UACC-257 melanoma) was > 100 µM.
`Fc1ccccc1C1CC(c2ccc3ccccc3c2)=Nc2ccccc2S1` (configuration not stated) was tested, and the TGI (CCRF-CEM leukemia) was > 100 µM, the TGI (MALME-3M melanoma) was > 100 µM and the TGI (NCI-H226 lung) was > 100 µM. For the same compound, the TGI (OVCAR-5 ovarian) was > 100 µM, the TGI (SF-268 CNS) was > 100 µM and the TGI (SK-MEL-2 melanoma) was > 100 µM. The TGI (UACC-257 melanoma) was > 100 µM.
